Test results from PMC3863468 (BioMed Research International, 2013).
One block for each molecule: values may come before it.

Legend:
in vivo = conditions: for AUC(0–t) / AUC(0–∞) / C max / CLz/F / MRT(0–t) / MRT(0–∞) / T max / Vz/F / t (1/2)z: then single oral 30 mg/kg imatinib, rat serum, n = 5
Experimental: HPLC system (Agilent 1100) was equipped with quaternary pump, on-line vacuum degasser, autosampler, column compartment, diode array detector, and Agilent Chem Station Rev A.10.02. […] The detection wavelength was 282 nm, and the injection volume was 20.0 μL.
The serum samples were prepared using liquid-liquid extraction technique. A 300 μL aliquot of the serum sample was taken in a 10 mL glass test tube, and on that 20 μL of IS (100 μg/mL) was spiked and 150 μL of sodium hydroxide solution (0.01 moL/L) was added. After vortex mixing for 30 s, 3 mL of ethyl acetate was added, and the mixture was vortexed for 1 min and then centrifuged at 3000 ×g for 5 min. The organic layer was transferred into another 5 mL tube and evaporated to dryness under a stream of nitrogen gas at 40°C. The residue was reconstituted in 100 μL of mobile phase and vortex-mixed for 1 min, and 20 μL of aliquot was injected into the HPLC system for analysis.
Experimental values were expressed as x-±s . Statistical analyses of main pharmacokinetic parameters were performed by Student's unpaired test using SPSS 16.0 software. A value of P < 0.05 was considered to be significant between two groups.

[1] = cited from earlier work
[2] = group B: apigenin 165 mg/kg for 15 days
[3] = group C: single dose apigenin 165 mg/kg
[4] = group D (single dose apigenin 252 mg/kg) vs group B, rats, 30 mg/kg imatinib
[5] = group D: single dose apigenin 252 mg/kg
[6] = short-term 165 mg/kg apigenin (group C), printed comparison with group B, rats, 30 mg/kg imatinib

V z/F decreased (printed: in group B) (in vivo; male, Sprague-Dawley, rat, in vivo, 30 mg/kg): 55.1% | AUC(0-t) (in vivo; male, Sprague-Dawley, rat, in vivo, po, 30 mg/kg, AUC(0–t)): 90600 ± 11300 ng·h/mL | AUC(0-inf) (in vivo; male, Sprague-Dawley, rat, in vivo, po, 30 mg/kg, AUC(0–∞)): 91000 ± 11600 ng·h/mL | Cmax (in vivo; male, Sprague-Dawley, rat, in vivo, po, 30 mg/kg, C max): 12100 ± 2020 ng/mL | Tmax (in vivo; male, Sprague-Dawley, rat, in vivo, po, 30 mg/kg, T max): 3 ± 1 h
Compound: Cc1ccc(NC(=O)c2ccc(CN3CCN(C)CC3)cc2)cc1Nc1nccc(-c2cccnc2)n1 [imatinib, reference compound]
oral bioavailability [1]: ~97%

AUC(0–t) (in vivo; group A: control (0.5% CMC-Na)): 5977 ± 1626 ng·h/mL | AUC(0–∞) (in vivo; group A: control (0.5% CMC-Na)): 6827 ± 2595 ng·h/mL | C max (in vivo; group A: control (0.5% CMC-Na)): 678 ± 147 ng/mL | CLz/F (in vivo; group A: control (0.5% CMC-Na)): 81.9 ± 29.7 mL/min/kg | MRT(0–t) (in vivo; group A: control (0.5% CMC-Na)): 7.085 ± 1.135 h | MRT(0–∞) (in vivo; group A: control (0.5% CMC-Na)): 9.718 ± 4.636 h | T max (in vivo; group A: control (0.5% CMC-Na)): 3.6 ± 0.894 h | Vz/F (in vivo; group A: control (0.5% CMC-Na)): 32.8 ± 10.3 L/kg | t (1/2)z (in vivo; group A: control (0.5% CMC-Na)): 5.495 ± 3.92 h | main pharmacokinetic parameters, difference between group A and group B (in vivo; group B (apigenin 165 mg/kg for 15 days) vs group A (control), rats): no great differences | AUC(0–t) (in vivo; [2]): 6335 ± 1105 ng·h/mL | AUC(0–∞) (in vivo; [2]): 6672 ± 797 ng·h/mL | C max (in vivo; [2]): 797 ± 73 ng/mL | CLz/F (in vivo; [2]): 75.9 ± 9.87 mL/min/kg | MRT(0–t) (in vivo; [2]): 6.573 ± 0.544 h | MRT(0–∞) (in vivo; [2]): 7.504 ± 0.189 h | T max (in vivo; [2]): 4.0 ± 0.003 h | Vz/F (in vivo; [2]): 26.8 ± 4.49 L/kg | t (1/2)z (in vivo; [2]): 4.083 ± 0.436 h | AUC(0–t) (in vivo; [3]): 4797 ± 602 ng·h/mL | AUC(0–∞) (in vivo; [3]): 5050 ± 797 ng·h/mL | C max (in vivo; [3]): 547 ± 91 ng/mL | CLz/F (in vivo; [3]): 101 ± 16.5 mL/min/kg | MRT(0–t) (in vivo; [3]): 7.227 ± 0.525 h | MRT(0–∞) (in vivo; [3]): 8.397 ± 1.545 h | T max (in vivo; [3]): 4.0 ± 0.005 h | Vz/F (in vivo; [3]): 40.7 ± 12.8 L/kg | t (1/2)z (in vivo; [3]): 4.906 ± 2.093 h | C max reduced compared with group B (in vivo; [4]): 19.82% | V z/F decrease compared with group B (in vivo; [4]): 62.10% | AUC(0–t) (in vivo; [5]): 5262 ± 890 ng·h/mL | AUC(0–∞) (in vivo; [5]): 5545 ± 814 ng·h/mL | C max (in vivo; [5]): 639 ± 130 ng/mL | CLz/F (in vivo; [5]): 91.8 ± 13.9 mL/min/kg | MRT(0–t) (in vivo; [5]): 7.326 ± 0.53 h | MRT(0–∞) (in vivo; [5]): 8.679 ± 1.301 h | T max (in vivo; [5]): 3.8 ± 0.447 h | Vz/F (in vivo; [5]): 43.5 ± 16.1 L/kg | t (1/2)z (in vivo; [5]): 5.376 ± 1.495 h | AUC(0−t) increased in comparison with group B (in vivo; [6]): 19.7% | C max increased in comparison with group B (in vivo; [6]): 19.3%
Compound: Cc1ccc(NC(=O)c2ccc(CN3CCNCC3)cc2)cc1Nc1nccc(-c2cccnc2)n1 [N-desmethyl imatinib]

dose dependence of effect on imatinib (in vivo; 252 mg/kg vs 165 mg/kg short-time apigenin, rats): not dose dependent | effect on the metabolism of imatinib in vivo (in vivo; long-term oral administration of apigenin (165 mg/kg for 15 days), rats): accelerated | effect on the metabolism of imatinib in vivo (in vivo; single dose of apigenin, rats): inhibited
Compound: O=c1cc(-c2ccc(O)cc2)oc2cc(O)cc(O)c12 [apigenin, reference compound]
